In patent publication EP4671247A1, “SUBSTITUTED PYRAZOLOPYRIMIDINE COMPOUND AND PHARMACEUTICAL USE THEREOF” (Japan Tobacco Inc., priority 2023, dated 2024):

target: T1, NLRP3 inflammasome (Homo sapiens, UniProt Q96P20); assay: Evaluation of NLRP3 inflammasome inhibitory activity (inhibition of IL-1β production in LPS/Nigericin-stimulated THP1-Null cells, AlphaLISA); type: cell-based; conditions: IC50, IL-1β production in THP1-Null cells; PMA, 1 µg/mL Lipopolysaccharides 3 hours, Nigericin 7.5 µmol/L 1.5 hours
T1 construct: host or cells: THP1-Null cells (PMA-differentiated, LPS-primed, nigericin-stimulated)
T1 sequence (Q96P20 whole entry): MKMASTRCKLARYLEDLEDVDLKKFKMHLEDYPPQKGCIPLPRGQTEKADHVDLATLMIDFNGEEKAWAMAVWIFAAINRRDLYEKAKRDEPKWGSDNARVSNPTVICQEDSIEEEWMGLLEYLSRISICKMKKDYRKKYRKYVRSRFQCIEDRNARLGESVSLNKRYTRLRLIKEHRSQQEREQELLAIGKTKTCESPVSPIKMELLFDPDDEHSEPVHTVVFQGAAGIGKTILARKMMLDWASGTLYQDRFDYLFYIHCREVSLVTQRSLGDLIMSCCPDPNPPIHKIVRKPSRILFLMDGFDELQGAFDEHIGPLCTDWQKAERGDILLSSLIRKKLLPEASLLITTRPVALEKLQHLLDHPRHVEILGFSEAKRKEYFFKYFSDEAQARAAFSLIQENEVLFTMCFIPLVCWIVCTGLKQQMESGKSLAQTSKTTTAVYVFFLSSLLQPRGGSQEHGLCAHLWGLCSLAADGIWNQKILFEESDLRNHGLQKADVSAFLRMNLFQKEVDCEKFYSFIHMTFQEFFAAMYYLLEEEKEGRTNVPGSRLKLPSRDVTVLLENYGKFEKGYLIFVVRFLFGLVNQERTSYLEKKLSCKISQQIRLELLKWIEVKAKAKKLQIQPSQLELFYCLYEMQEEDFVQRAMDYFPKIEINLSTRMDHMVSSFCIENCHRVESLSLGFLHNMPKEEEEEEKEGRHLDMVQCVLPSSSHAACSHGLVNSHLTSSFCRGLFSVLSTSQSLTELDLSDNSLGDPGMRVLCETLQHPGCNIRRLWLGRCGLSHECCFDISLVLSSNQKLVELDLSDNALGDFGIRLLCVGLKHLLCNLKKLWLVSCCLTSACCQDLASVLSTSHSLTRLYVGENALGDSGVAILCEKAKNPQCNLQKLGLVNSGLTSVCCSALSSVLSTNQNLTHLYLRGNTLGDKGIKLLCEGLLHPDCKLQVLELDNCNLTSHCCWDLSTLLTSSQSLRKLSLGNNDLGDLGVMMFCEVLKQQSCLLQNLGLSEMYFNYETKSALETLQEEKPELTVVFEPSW
Description: The NLRP3 inflammasome inhibitory activity of test compounds were evaluated on the basis of the inhibitory activity of the IL-1β production in THP1-Null cells (Product Number: thp-null, InvivoGen).
The supernatant of the culture was removed, and thereto was added media for assay (25 µL/well) containing 1 µg/mL Lipopolysaccharides (Product Number: L2654, Sigma-Aldrich (registered trademark)). […] The supernatant of the culture was removed. […] A solution containing a test compound (20 µL/well) was added to test compound-setting wells. […] The supernatant of the culture was cryonically stored (set at -20°C) until measurement of IL-1β.
The amount of IL-1β in the culture supernatant was quantitated with AlphaLISA (registered trademark) Human IL-1β Detection Kit (Product Number: AL220C, Perkin Elmer). Fluorescence intensity was measured with a microplate reader EnSpier (Model number: 2300-00J, Perkin Elmer) or EnSight (Model number: HH34000000, Perkin Elmer) according to procedure manuals attached thereto. Inhibition rates of the test compound-setting wells were calculated on the basis of 100% for the blank-setting wells and 0% for the control-setting wells.

SMILES	IC50 [nM]
Cc1nc2nn(-c3c(C)cc(Br)cc3C)cc2c(=O)[nH]1 [Example 18]	220

same assay, conditions: IL-1β production in THP1-Null cells; PMA, 1 µg/mL Lipopolysaccharides 3 hours, Nigericin 7.5 µmol/L 1.5 hours

SMILES	IC50 [nM]
Cc1cc(C(C)(F)F)cc(C)c1-n1cc2c(=O)[nH]c(C3(F)CCOC3)nc2n1 (single isomer, unassigned) [Example 130]	240
Cc1cc(C2CC2)cc(C)c1-n1cc2c(=O)[nH]c(C(C)O)nc2n1 (single isomer, unassigned) [Example 156]	13
Cc1cc(C2CC2)cc(C)c1-n1cc2c(=O)[nH]c(C(C)O)nc2n1 (single isomer, unassigned) [Example 157]	340
Cc1cc(C2CC2)cc(C)c1-n1cc2c(=O)[nH]c(C(O)C(F)F)nc2n1 (single isomer, unassigned) [Example 169]	26
Cc1cc(C2CC2)cc(C)c1-n1cc2c(=O)[nH]c(C(O)C(F)F)nc2n1 (single isomer, unassigned) [Example 170]	510
Cc1cc(OC(F)F)cc(C)c1-n1cc2c(=O)[nH]c([C@@H]3C[C@H]3F)nc2n1 (single isomer, unassigned) [Example 172]	8
Cc1cc(OC(F)F)cc(C)c1-n1cc2c(=O)[nH]c(C3CC3F)nc2n1 (single isomer, unassigned) [Example 173]	15
Cc1cc(OC(F)F)cc(C)c1-n1cc2c(=O)[nH]c(C3CCOCC3F)nc2n1 (single isomer, unassigned) [Example 176]	75
Cc1cc(OC(F)F)cc(C)c1-n1cc2c(=O)[nH]c(C3CCOCC3F)nc2n1 (single isomer, unassigned) [Example 177]	24
Cc1cc(OC(F)F)cc(C)c1-n1cc2c(=O)[nH]c(C3COCC3F)nc2n1 (single isomer, unassigned) [Example 182]	8
Cc1cc(OC(F)F)cc(C)c1-n1cc2c(=O)[nH]c(C3COCC3F)nc2n1 (single isomer, unassigned) [Example 183]	35
Cc1cc(C(C)(F)F)cc(C)c1-n1cc2c(=O)[nH]c(C3CCOCCO3)nc2n1 (single isomer, unassigned) [Example 187]	67
Cc1cc(C(C)(F)F)cc(C)c1-n1cc2c(=O)[nH]c(C3CCOCCO3)nc2n1 (single isomer, unassigned) [Example 188]	190
Cc1cc(OC(F)F)cc(C)c1-n1cc2c(=O)[nH]c(C3CCOCCO3)nc2n1 (single isomer, unassigned) [Example 193]	27
Cc1cc(OC(F)F)cc(C)c1-n1cc2c(=O)[nH]c(C3CCOCCO3)nc2n1 (single isomer, unassigned) [Example 194]	100

same assay, conditions: IL-1β production in THP1-Null cells; PMA, 1 µg/mL Lipopolysaccharides 3 hours, Nigericin 7.5 µmol/L 1.5 hours; read-out: IC50

SMILES	IC50 [nM]
Cc1cc(C(C)(F)F)cc(C)c1-n1cc2c(=O)[nH]c([C@@H]3C[C@H]3F)nc2n1 (single isomer, unassigned) [Example 146]	15
Cc1cc(C(C)(F)F)cc(C)c1-n1cc2c(=O)[nH]c([C@H]3C[C@@H]3F)nc2n1 (single isomer, unassigned) [Example 147]	24
Cc1cc(C(C)(F)F)cc(C)c1-n1cc2c(=O)[nH]c([C@@H](C)O)nc2n1 (single isomer, unassigned) [Example 154]	25
Cc1cc(C(C)(F)F)cc(C)c1-n1cc2c(=O)[nH]c([C@H](C)O)nc2n1 (single isomer, unassigned) [Example 155]	610
Cc1cc(OC(F)F)cc(C)c1-n1cc2c(=O)[nH]c([C@@H](C)O)nc2n1 (single isomer, unassigned) [Example 165]	75
Cc1cc(OC(F)F)cc(C)c1-n1cc2c(=O)[nH]c([C@H](C)O)nc2n1 (single isomer, unassigned) [Example 166]	1300
Cc1cc(OC(F)F)cc(C)c1-n1cc2c(=O)[nH]c(C3(O)CCOCC3F)nc2n1 (single isomer, unassigned) [Example 174]	30
Cc1cc(C2CC2)cc(C)c1-n1cc2c(=O)[nH]c(C3CCOCCO3)nc2n1 (single isomer, unassigned) [Example 178, 2-(4-cyclopropyl-2,6-dimethylphenyl)-6-(1,4-dioxepan-5-yl)-2,5-dihydro-4H-pyrazolo[3,4-d]pyrimidin-4-one]	11
Cc1cc(C2CC2)cc(C)c1-n1cc2c(=O)[nH]c(C3CCOCCO3)nc2n1 (single isomer, unassigned) [Example 179, 2-(4-cyclopropyl-2,6-dimethylphenyl)-6-(1,4-dioxepan-5-yl)-2,5-dihydro-4H-pyrazolo[3,4-d]pyrimidin-4-one]	51
Cc1ccccc1-n1cc2c(=O)[nH]c(C3CCCC3)nc2n1 [Example 1]	2300
Cc1ccccc1-n1cc2c(=O)[nH]c(C3=CCCC3)nc2n1 [Example 2]	1300
Cc1ccc(-n2cc3c(=O)[nH]c(C4CC4)nc3n2)c(C)c1 [Example 3]	240
Cc1ccc(-n2cc3c(=O)[nH]c(C)nc3n2)c(C)c1 [Example 4]	540
COCc1nc2nn(-c3ccc(C)cc3C)cc2c(=O)[nH]1 [Example 5]	580
Cc1ccc(-n2cc3c(=O)[nH]c(CC(C)C)nc3n2)c(C)c1 [Example 6]	430
CCc1nc2nn(-c3ccc(C)cc3C)cc2c(=O)[nH]1 [Example 8]	230
COCCc1nc2nn(-c3ccc(C)cc3C)cc2c(=O)[nH]1 [Example 9]	1100
Cc1ccc(-n2cc3c(=O)[nH]c(C(F)F)nc3n2)c(C)c1 [Example 10]	13000
Cc1nc2nn(-c3c(C)cc(C4CC4)cc3C)cc2c(=O)[nH]1 [Example 19]	170
Cc1cc(C2CC2)cc(F)c1-n1cc2c(=O)[nH]c(C3CC3)nc2n1 [Example 20]	13

SMILES	IC50 [nM]
Cc1cc(C2CC2)cc(C)c1-n1cc2c(=O)[nH]c(C3CC3)nc2n1 [Example 21]	12
Cc1cc(C2CC2)cc(C)c1-n1cc2c(=O)[nH]c(C3CCC3)nc2n1 [Example 22]	12
CCc1nc2nn(-c3c(C)cc(C4CC4)cc3C)cc2c(=O)[nH]1 [Example 23]	24
Cc1cc(C2CC2)ccc1-n1cc2c(=O)[nH]c(C3CC3)nc2n1 [Example 24]	47
COCc1cc(C2CC2)ccc1-n1cc2c(=O)[nH]c(C3CC3)nc2n1 [Example 25]	44
COc1cc(C2CC2)ccc1-n1cc2c(=O)[nH]c(C3CC3)nc2n1 [Example 26]	76
COCc1nc2nn(-c3c(C)cc(Br)cc3C)cc2c(=O)[nH]1 [Example 27]	29
Cc1cc(Br)cc(C)c1-n1cc2c(=O)[nH]c(C3(C#N)CC3)nc2n1 [Example 30]	280
Cc1ccc(-n2cc3c(=O)[nH]c(C4CCOCC4)nc3n2)c(C)c1 [Example 33]	68
Cc1ccc(-n2cc3c(=O)[nH]c(CCCS(C)(=O)=O)nc3n2)c(C)c1 [Example 37]	1100
Cc1cc(C2CC2)cc(C)c1-n1cc2c(=O)[nH]c(C3COC3)nc2n1 [Example 39]	16
Cc1cc(C2CC2)cc(C)c1-n1cc2c(=O)[nH]c(C3CCOCC3)nc2n1 [Example 42]	4
COCc1nc2nn(-c3c(C)cc(C4CC4)cc3C)cc2c(=O)[nH]1 [Example 43]	42
Cc1cc(C2CC2)cc(C)c1-n1cc2c(=O)[nH]c(C3(C)COC3)nc2n1 [Example 44]	47
Cc1cc(C2CC2)cc(C)c1-n1cc2c(=O)[nH]c(C3CC(F)(F)C3)nc2n1 [Example 45]	7
Cc1cc(Br)cc(C)c1-n1cc2c(=O)[nH]c(COCC3CCOCC3)nc2n1 [Example 46]	140
Cc1cc(C2CC2)cc(C)c1-n1cc2c(=O)[nH]c(COCC3CCOCC3)nc2n1 [Example 47]	180
Cc1cc(C2CC2)cc(C)c1-n1cc2c(=O)[nH]c(C3(F)CC3)nc2n1 [Example 48]	23
Cc1cc(C2CC2)cc(C)c1-n1cc2c(=O)[nH]c(C34CC(F)(C3)C4)nc2n1 [Example 49]	24

same assay, conditions: test compound at 2.4 µM; IL-1β production in THP1-Null cells

SMILES	inhibition at 2.4 µM [%]
COC(=O)Cn1c(C)nc2nn(-c3ccc(C)cc3C)cc2c1=O [Example 14]	-13
Cc1ccc(-n2cc3c(=O)n(CC(=O)O)c(C)nc3n2)c(C)c1 [Example 15]	-3
Cc1ccc(-n2cc3c(=O)n(CC(=O)N(C)C)c(C)nc3n2)c(C)c1 [Example 16]	-14
CNC(=O)Cn1c(C)nc2nn(-c3ccc(C)cc3C)cc2c1=O [Example 17]	-15
Cc1ccc(-n2cc3c(=O)[nH]c(CN4CCOCC4)nc3n2)c(C)c1 [Example 38]	40

same assay, conditions: test compound at 24 µM; IL-1β production in THP1-Null cells

SMILES	inhibition at 24 µM [%]
CCOc1nc(C)nc2nn(-c3ccc(C)cc3C)cc12 [Example 11]	43
COc1nc(C)nc2nn(-c3ccc(C)cc3C)cc12 [Example 12]	26
Cc1ccc(-n2cc3c(=O)n(C)c(C)nc3n2)c(C)c1 [Example 13, 2-(2,4-dimethylphenyl)-5,6-dimethyl-2,5-dihydro-4H-pyrazolo[3,4-d]pyrimidin-4-one]	3

same assay, conditions: test compound at 30 µM; IL-1β production in THP1-Null cells

SMILES	inhibition at 30 µM [%]
Cc1ccc(-n2cc3c(=O)[nH]c(C(F)(F)F)nc3n2)c(C)c1 [Example 7]	44
